Assay results: patent US20260242371A1, “LIPID PRODRUGS OF BROM[…] USES THEREOF” (priority 2023, published 2026)

Tests used:
[1] = Metabolism identification (MetID) assay in human hepatocytes; conditions: 10 μM bromolysergide, 3 hours, 37 degrees Celsius
[2] = Metabolism identification (MetID) assay in human liver microsomes S9 fraction; conditions: 10 μM bromolysergide, human liver microsomes S9 1 mg/mL, NADPH, one hour, 37° C.
[3] = Metabolism identification (MetID) assay in rat hepatocytes; conditions: 10 μM bromolysergide, 3 hours, 37 degrees Celsius
[4] = Pharmacokinetics of 2-bromo-LSD prodrugs in rats; conditions: male, Sprague-Dawley, rat, plasma, iv
[5] = patients given up to 22 mg; Schneckloth, R., et al., Circulation 1957; cited from earlier work
[6] = biological target: 5-HT2B receptor (Homo sapiens, UniProt P41595); conditions: cited from earlier work
Chain of 5-HT2B receptor (P41595 whole entry): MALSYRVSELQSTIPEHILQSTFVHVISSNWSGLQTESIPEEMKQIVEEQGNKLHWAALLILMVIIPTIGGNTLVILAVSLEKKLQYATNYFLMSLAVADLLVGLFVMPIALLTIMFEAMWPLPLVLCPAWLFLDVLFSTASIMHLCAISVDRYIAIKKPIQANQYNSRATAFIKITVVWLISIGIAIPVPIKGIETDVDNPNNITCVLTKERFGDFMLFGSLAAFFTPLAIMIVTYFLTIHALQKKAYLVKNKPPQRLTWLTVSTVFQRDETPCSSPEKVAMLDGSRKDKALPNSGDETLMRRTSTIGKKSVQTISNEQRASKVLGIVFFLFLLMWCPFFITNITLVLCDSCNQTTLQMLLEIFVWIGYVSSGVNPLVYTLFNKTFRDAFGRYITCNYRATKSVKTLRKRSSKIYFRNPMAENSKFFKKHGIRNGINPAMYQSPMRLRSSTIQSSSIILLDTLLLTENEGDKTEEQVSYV

[7] = Pharmacokinetics of 2-bromo-LSD prodrugs in non-human primates; conditions: cynomolgus monkey, plasma; for AUC(0-t) / Cmax: iv
[8] = biological target: 5-HT2A receptor (Homo sapiens, UniProt P28223); conditions: Lewis, V. et al, Cell Reports 2023; cited from earlier work
Chain of 5-HT2A receptor (P28223 whole entry): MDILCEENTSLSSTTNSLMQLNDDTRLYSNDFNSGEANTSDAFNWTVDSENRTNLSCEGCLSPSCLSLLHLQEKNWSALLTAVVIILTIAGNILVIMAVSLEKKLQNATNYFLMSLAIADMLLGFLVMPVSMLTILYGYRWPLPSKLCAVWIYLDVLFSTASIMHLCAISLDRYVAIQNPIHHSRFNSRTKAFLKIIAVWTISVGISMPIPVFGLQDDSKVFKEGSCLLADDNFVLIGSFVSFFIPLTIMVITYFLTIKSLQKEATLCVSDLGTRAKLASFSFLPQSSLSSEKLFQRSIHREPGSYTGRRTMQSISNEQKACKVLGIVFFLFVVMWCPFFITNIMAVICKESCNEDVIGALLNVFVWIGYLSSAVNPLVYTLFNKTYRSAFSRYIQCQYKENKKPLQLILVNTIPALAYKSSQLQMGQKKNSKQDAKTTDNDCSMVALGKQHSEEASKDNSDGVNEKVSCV

| SMILES | % of Total Human [1] | % of Total Human_LM [2] | % of Total Rat [3] | also measured |
| --- | --- | --- | --- | --- |
| CCN(CC)C(=O)[C@@H]1C=C2c3cccc4[nH]c(Br)c(c34)C[C@H]2NC1 [Compound M387] | 3.0% | 3.0% | 2.5% | – |
| CCN(CC)C(=O)[C@@H]1C=C2c3cccc4[nH]c(Br)c(c34)C[C@H]2N(C)C1 [Compound 2BL, 2-bromo-lysergic acid diethylamide] | 41.3% | 30.0% | 18.5% | AUC(0-t) [4]: 0.93 ± 0.1 µM·h; Cmax [4]: 890 ± 60 nM; hallucinations in patients [5]: no hallucinations reported; activity at 5-HT2B receptor [6]: antagonist; Tmax ([7]; oral): ~2 h; AUC(0-t) ([7]; female): 340 ± 38 ng·h/mL; Cmax ([7]; female): 340 ± 58 ng/mL; AUC(0-t) ([7]; male): 300 ± 40 ng·h/mL; Cmax ([7]; male): 280 ± 8.8 ng/mL; activity at 5-HT2A receptor [8]: partial agonism |
| CN1C[C@H](C(=O)O)C=C2c3cccc4[nH]c(Br)c(c34)C[C@H]21 [Compound M346] | 14.3% | 0.9% | 0.5% | – |
| CCN(CC)C(=O)[C@@H]1C=C2c3cccc4[nH]c(O)c(c34)C[C@H]2N(C)C1 [Compound M339] | 4.8% | 4.4% | 3.9% | – |
| CCNC(=O)[C@@H]1C=C2c3cccc4[nH]c(Br)c(c34)C[C@H]2NC1 [Compound M359] | 1.0% | 1.2% | 0.7% | – |
| CCNC(=O)[C@@H]1C=C2c3cccc4[nH]c(Br)c(c34)C[C@H]2N(C)C1 [Compound M373] | 10.3% | 19.6% | 7.7% | – |
| CN1C[C@H](C(N)=O)C=C2c3cccc4[nH]c(Br)c(c34)C[C@H]21 [Compound M345] | 0.4% | 0.2% | 0.1% | – |
